The structures appear in SMILES notation.

The values that follow come from US8476265B2, “Compounds-801” (AstraZeneca AB, priority 2010, dated 2013).

The target of one test is T1, Adrenergic β2 (Homo sapiens, UniProt P07550).
T1 construct: Adherent H292 cells are removed from tissue culture flasks by treatment with Accutase™ cell detachment solution; endogenous in cells; host or cells: H292 cells
The test can be described thus: Adrenergic β2 mediated cAMP production in H292 cells, single concentration 1 μM. The class given is cell-based. The following applies: cAMP as percentage of the maximum response generated by 1E-07M formoterol; for percent of formoterol maximum response at 1 µM: NCI-H292, 1 μM compound, read-out: β2 % effect @1 uM; for β2 % effect @1 uM: 1 μM compound. The procedure, abridged: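 H292 cells pretreated with rolipram (300 μM final) 10 min, then compound at 1 μM final, 1% DMSO, 60 min at room temperature in HBSS/10 mM HEPES pH 7.4/5 mM glucose. Lysate cAMP quantified by AlphaScreen against a standard curve, as % of maximal response to 1E-07M formoterol.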
On the technique in general: Changes in cAMP serve as a functional read-out for many G protein-coupled receptors.

Test [1] has as its target T2, human muscarinic acetylcholine M3 receptor (Homo sapiens, UniProt P20309).
T2 construct: expressed in transfected cells; host or cells: CHO-K1 (Chinese Hamster Ovary) cell membranes
In words: Muscarinic 3 receptor binding assay ([3H]NMS competition, SPA), single concentration 1 μM. The settings on record: 1 μM compound; % inhibition specific [3H]-NMS binding. The procedure, abridged:
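CHO-K1 membranes expressing human M3 on SPA beads, competition with 0.1 nM [3H]NMS (quarter Kd) in 20 mM HEPES pH 7.4, 5 mM MgCl2, 0.1% BSA, 1% DMSO; compound at 1 μM. 16 h at room temperature. Value is % inhibition of specific binding, non-specific defined with 1 μM atropine.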

T1 sequence (P07550 whole entry): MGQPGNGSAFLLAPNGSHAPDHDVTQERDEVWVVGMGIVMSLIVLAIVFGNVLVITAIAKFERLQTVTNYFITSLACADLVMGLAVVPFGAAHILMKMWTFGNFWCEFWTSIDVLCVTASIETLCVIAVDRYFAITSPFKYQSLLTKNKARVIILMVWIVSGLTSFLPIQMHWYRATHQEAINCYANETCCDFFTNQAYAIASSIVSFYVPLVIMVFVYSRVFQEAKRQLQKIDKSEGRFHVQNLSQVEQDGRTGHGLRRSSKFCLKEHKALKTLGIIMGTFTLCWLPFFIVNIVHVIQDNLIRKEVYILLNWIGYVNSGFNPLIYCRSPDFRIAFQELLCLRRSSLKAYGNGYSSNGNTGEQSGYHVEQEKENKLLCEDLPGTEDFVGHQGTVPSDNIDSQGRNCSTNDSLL
T2 sequence (P20309 whole entry): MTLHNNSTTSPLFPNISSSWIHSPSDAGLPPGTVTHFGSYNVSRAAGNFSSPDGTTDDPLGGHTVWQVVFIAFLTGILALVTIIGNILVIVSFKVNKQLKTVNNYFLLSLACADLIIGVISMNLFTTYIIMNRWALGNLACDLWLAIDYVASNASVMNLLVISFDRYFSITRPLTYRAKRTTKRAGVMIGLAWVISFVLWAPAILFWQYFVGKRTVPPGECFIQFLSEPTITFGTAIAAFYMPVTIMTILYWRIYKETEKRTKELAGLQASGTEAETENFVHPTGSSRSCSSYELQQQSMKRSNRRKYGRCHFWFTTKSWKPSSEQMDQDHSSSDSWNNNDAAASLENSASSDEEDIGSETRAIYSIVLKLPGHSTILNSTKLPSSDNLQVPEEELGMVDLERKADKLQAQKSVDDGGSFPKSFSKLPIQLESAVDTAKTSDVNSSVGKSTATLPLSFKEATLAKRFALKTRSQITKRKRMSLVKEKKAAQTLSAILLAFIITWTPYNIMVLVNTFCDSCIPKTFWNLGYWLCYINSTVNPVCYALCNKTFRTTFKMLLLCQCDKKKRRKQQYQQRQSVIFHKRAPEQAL

As a reminder, the inhibition is the drop in the measured response relative to a control, in per cent. Take `O=C1COc2c(CCNCCN(C(=O)CCOCCc3cccc(CN4CCC5(CC4)CN(C(=O)Cc4c[nH]c6ccccc46)CCO5)c3)C3CCCCC3)ccc(O)c2N1` [Example 141, 3-(3-((4-(2-(1H-Indol-3-yl)acetyl)-1-oxa-4,9-diazaspiro[5.5]undecan-9-yl)methyl)phenethoxy)-N-cyclohexyl-N-(2-(2-(5-hydroxy-3-oxo-3,4-dihydro-2H-benzo[b][1,4]oxazin-8-yl)ethylamino)ethyl)propanamide]: the percent of formoterol maximum response at 1 µM on Adrenergic β2 was found to be 108%. Also, in test [1], the inhibition at 1 µM came out at 96%.
Regarding `Cc1cc(C)n2nc(C(=O)N3CCOC4(CCN(Cc5cccc(CCOCCC(=O)N(CCNCCc6ccc(O)c7c6OCC(=O)N7)C6CCCCC6)c5)CC4)C3)cc2n1` [Example 142, N-Cyclohexyl-3-(3-((4-(5,7-dimethylpyrazolo[1,5-a]pyrimidine-2-carbonyl)-1-oxa-4,9-diazaspiro[5.5]undecan-9-yl)methyl)phenethoxy)-N-(2-(2-(5-hydroxy-3-oxo-3,4-dihydro-2H-benzo[b][1,4]oxazin-8-yl)ethylamino)ethyl)propanamide], the percent of formoterol maximum response at 1 µM at Adrenergic β2 was 83%. The inhibition at 1 µM in test [1] was 100%.
Consider `O=C1COc2c(CCNCCN(C(=O)CCOCCc3cccc(CN4CCC5(CC4)CN(C(=O)C46CC7CC(F)(CC(F)(C7)C4)C6)CCO5)c3)C3CCCCC3)ccc(O)c2N1` [Example 143], for which, on Adrenergic β2, the “β2 % effect @1 uM” value amounted to 105%. Further, the “M3 % inhibition @1 uM” value in test [1] was 101%.
In the case of `O=C1COc2c(CCNCCN(C(=O)CCOCCc3cccc(CN4CCC5(CC4)CN(C(=O)c4cnc(-c6ccccc6)[nH]4)CCO5)c3)C3CCCCC3)ccc(O)c2N1` [Example 145, N-Cyclohexyl-N-(2-(2-(5-hydroxy-3-oxo-3,4-dihydro-2H-benzo[b][1,4]oxazin-8-yl)ethylamino)ethyl)-3-(3-((4-(2-phenyl-1H-imidazole-5-carbonyl)-1-oxa-4,9-diazaspiro[5.5]undecan-9-yl)methyl)phenethoxy)propanamide], the percent of formoterol maximum response at 1 µM on Adrenergic β2 came out at 117%. The inhibition at 1 µM in test [1] was found to be 90%.
Take `O=C1COc2c(CCNCCN(C(=O)CCOCCc3cccc(CN4CCC5(CC4)CN(C(=O)CC4(O)CCCCCC4)CCO5)c3)C3CCCCC3)ccc(O)c2N1` [Example 148, N-Cyclohexyl-N-(2-(2-(5-hydroxy-3-oxo-3,4-dihydro-2H-benzo[b][1,4]oxazin-8-yl)ethylamino)ethyl)-3-(3-((4-(2-(l-hydroxycycloheptyl)acetyl)-1-oxa-4,9-diazaspiro[5.5]undecan-9-yl)methyl)phenethoxy)propanamide]: the “β2 % effect @1 uM” value on Adrenergic β2 worked out at 108%. The “M3 % inhibition @1 uM” value in test [1] was determined as 95%.
For `O=C1COc2c(CCNCCN(C(=O)CCOCCc3cccc(CN4CCC5(CC4)CN(C(=O)CCCOCc4ccccc4)CCO5)c3)C3CCCCC3)ccc(O)c2N1` [Example 151, 3-(3-((4-(4-(Benzyloxy)butanoyl)-1-oxa-4,9-diazaspiro[5.5]undecan-9-yl)methyl)phenethoxy)-N-cyclohexyl-N-(2-(2-(5-hydroxy-3-oxo-3,4-dihydro-2H-benzo[b][1,4]oxazin-8-yl)ethylamino)ethyl)propanamide], the percent of formoterol maximum response at 1 µM on Adrenergic β2 was 113%. In addition, in test [1], the inhibition at 1 µM stood at 97%.
For `O=C1COc2c(CCNCCN(C(=O)CCOCCc3cccc(CN4CCC5(CC4)CN(C(=O)C(O)C(F)(F)F)CCO5)c3)C3CCCCC3)ccc(O)c2N1` (stereo not shown) [Example 152, N-Cyclohexyl-N-(2-(2-(5-hydroxy-3-oxo-3,4-dihydro-2H-benzo[b][1,4]oxazin-8-yl)ethylamino)ethyl)-3-(3-((4-(3,3,3-trifluoro-2-hydroxypropanoyl)-1-oxa-4,9-diazaspiro[5.5]undecan-9-yl)methyl)phenethoxy)propanamide], the percent of formoterol maximum response at 1 µM at Adrenergic β2 came to 112%. The inhibition at 1 µM in test [1] was 100%.
On the same counts, the results for `O=C1COc2c(CCNCCN(C(=O)CCOCCc3cccc(CN4CCC5(CC4)CN(C(=O)c4cccs4)CCO5)c3)C3CCCCC3)ccc(O)c2N1` [Example 153, N-Cyclohexyl-N-(2-(2-(5-hydroxy-3-oxo-3,4-dihydro-2H-benzo[b][1,4]oxazin-8-yl)ethylamino)ethyl)-3-(3-((4-(thiophene-2-carbonyl)-1-oxa-4,9-diazaspiro[5.5]undecan-9-yl)methyl)phenethoxy)propanamide] are 98% and 101%.
As to `CC(C)(C)C(=O)N1CCOC2(CCN(Cc3cccc(CCOCCC(=O)N(CCNCCc4ccc(O)c5c4OCC(=O)N5)C4CCCCC4)c3)CC2)C1` [Example 155, N-Cyclohexyl-N-(2-(2-(5-hydroxy-3-oxo-3,4-dihydro-2H-benzo[b][1,4]oxazin-8-yl)ethylamino)ethyl)-3-(3-((4-pivaloyl-1-oxa-4,9-diazaspiro[5.5]undecan-9-yl)methyl)phenethoxy)propanamide], at Adrenergic β2, the percent of formoterol maximum response at 1 µM was found to be 93%. In test [1], the inhibition at 1 µM was determined as 99%.
Consider `N#Cc1ccc(C(=O)N2CCOC3(CCN(Cc4cccc(CCOCCC(=O)N(CCNCCc5ccc(O)c6c5OCC(=O)N6)C5CCCCC5)c4)CC3)C2)cc1` [Example 156, 3-(3-((4-(4-Cyanobenzoyl)-1-oxa-4,9-diazaspiro[5.5]undecan-9-yl)methyl)phenethoxy)-N-cyclohexyl-N-(2-(2-(5-hydroxy-3-oxo-3,4-dihydro-2H-benzo[b][1,4]oxazin-8-yl)ethylamino)ethyl)propanamide], for which the percent of formoterol maximum response at 1 µM on Adrenergic β2 came to 86%. Besides, in test [1], the inhibition at 1 µM turned out to be 93%.
Taken in the same sequence, the figures for `Cc1ccccc1C(=O)N1CCOC2(CCN(Cc3cccc(CCOCCC(=O)N(CCNCCc4ccc(O)c5c4OCC(=O)N5)C4CCCCC4)c3)CC2)C1` [Example 158, N-Cyclohexyl-N-(2-(2-(5-hydroxy-3-oxo-3,4-dihydro-2H-benzo[b][1,4]oxazin-8-yl)ethylamino)ethyl)-3-(3-((4-(2-methylbenzoyl)-1-oxa-4,9-diazaspiro[5.5]undecan-9-yl)methyl)phenethoxy)propanamide] were 94% and 98%.
In the case of `CCCC(C)C(=O)N1CCOC2(CCN(Cc3cccc(CCOCCC(=O)N(CCNCCc4ccc(O)c5c4OCC(=O)N5)C4CCCCC4)c3)CC2)C1` (stereo not shown) [Example 160, N-Cyclohexyl-N-(2-(2-(5-hydroxy-3-oxo-3,4-dihydro-2H-benzo[b][1,4]oxazin-8-yl)ethylamino)ethyl)-3-(3-((4-(2-methylpentanoyl)-1-oxa-4,9-diazaspiro[5.5]undecan-9-yl)methyl)phenethoxy)propanamide], the percent of formoterol maximum response at 1 µM at Adrenergic β2 came out at 79%. For the same molecule, in test [1], the inhibition at 1 µM was found to be 99%.
With `O=C1COc2c(CCNCCN(C(=O)CCOCCc3cccc(CN4CCC5(CC4)CN(C(=O)c4ccc(F)cc4F)CCO5)c3)C3CCCCC3)ccc(O)c2N1` [Example 162, N-Cyclohexyl-3-(3-((4-(2,4-difluorobenzoyl)-1-oxa-4,9-diazaspiro[5.5]undecan-9-yl)methyl)phenethoxy)-N-(2-(2-(5-hydroxy-3-oxo-3,4-dihydro-2H-benzo[b][1,4]oxazin-8-yl)ethylamino)ethyl)propanamide], the percent of formoterol maximum response at 1 µM at Adrenergic β2 stood at 95%. Moreover, the inhibition at 1 µM in test [1] was 100%.
Regarding `O=C1COc2c(CCNCCN(C(=O)CCOCCc3cccc(CN4CCC5(CC4)CN(C(=O)c4c(F)cccc4F)CCO5)c3)C3CCCCC3)ccc(O)c2N1` [Example 163, N-Cyclohexyl-3-(3-((4-(2,6-difluorobenzoyl)-1-oxa-4,9-diazaspiro[5.5]undecan-9-yl)methyl)phenethoxy)-N-(2-(2-(5-hydroxy-3-oxo-3,4-dihydro-2H-benzo[b][1,4]oxazin-8-yl)ethylamino)ethyl)propanamide], the percent of formoterol maximum response at 1 µM on Adrenergic β2 stood at 97%. For the same molecule, in test [1], the inhibition at 1 µM was 98%.
As for `O=C1COc2c(CCNCCN(C(=O)CCOCCc3cccc(CN4CCC5(CC4)CN(C(=O)[C@H](O)c4ccccc4)CCO5)c3)C3CCCCC3)ccc(O)c2N1` [Example 166, (R)-N-Cyclohexyl-3-(3-((4-(2-hydroxy-2-phenylacetyl)-1-oxa-4,9-diazaspiro[5.5]undecan-9-yl)methyl)phenethoxy)-N-(2-(2-(5-hydroxy-3-oxo-3,4-dihydro-2H-benzo[b][1,4]oxazin-8-yl)ethylamino)ethyl)propanamide], at Adrenergic β2, the percent of formoterol maximum response at 1 µM was found to be 96%. For the same molecule, the inhibition at 1 µM in test [1] is 100%.
Taken in the same sequence, the figures for `O=C1COc2c(CCNCCN(C(=O)CCOCCc3cccc(CN4CCC5(CC4)CN(C(=O)c4cccc6[nH]ccc46)CCO5)c3)C3CCCCC3)ccc(O)c2N1` [Example 168, 3-(3-((4-(1H-Indole-4-carbonyl)-1-oxa-4,9-diazaspiro[5.5]undecan-9-yl)methyl)phenethoxy)-N-cyclohexyl-N-(2-(2-(5-hydroxy-3-oxo-3,4-dihydro-2H-benzo[b][1,4]oxazin-8-yl)ethylamino)ethyl)propanamide] were 103% and 92%.
As to `O=C1COc2c(CCNCCN(C(=O)CCOCCc3cccc(CN4CCC5(CC4)CN(C(=O)Cc4ccccc4F)CCO5)c3)C3CCCCC3)ccc(O)c2N1` [Example 169, N-Cyclohexyl-3-(3-((4-(2-(2-fluorophenyl)acetyl)-1-oxa-4,9-diazaspiro[5.5]undecan-9-yl)methyl)phenethoxy)-N-(2-(2-(5-hydroxy-3-oxo-3,4-dihydro-2H-benzo[b][1,4]oxazin-8-yl)ethylamino)ethyl)propanamide], the percent of formoterol maximum response at 1 µM on Adrenergic β2 was 102%. For the same molecule, the inhibition at 1 µM in test [1] came to 101%.
